Assay results: PubChem BioAssay AID328 (DTP/NCI, 2004)
Inconclusive results and toxic doses are left out. How the source made its calls: active means survival T/C of 150% or more; inactive means T/C below 125% in these data.

System: BDF1 mice, P388 leukemia ip, median survival T/C
Assay: NCI In Vivo Anticancer Drug Screen. Data for tumor model P388 Leukemia (intraperitoneal) in B6D2F1 (BDF1) mice
Conditions: endpoint: median survival time, higher = longer survival
Summary of the method: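 Antitumour effect was judged in vivo: survival in drug-treated mice, normalised to that of vehicle-dosed controls, gives the reported T/C.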

[1] = dose: 12.5 mg/kg/injection, schedule: Q01DX009 (ip), vehicle: Klucel (hydroxypropylcellulose) (HPC)
[2] = dose: 25.0 mg/kg/injection, schedule: Q01DX009 (ip), vehicle: Klucel (hydroxypropylcellulose) (HPC)
[3] = dose: 100.0 mg/kg/injection, schedule: Q01DX009 (ip), vehicle: saline with Tween-80
[4] = dose: 100.0 mg/kg/injection, schedule: Q04DX003 (ip), vehicle: saline sonified
[5] = dose: 200.0 mg/kg/injection, schedule: Q04DX003 (ip), vehicle: saline sonified
[6] = dose: 400.0 mg/kg/injection, schedule: Q04DX003 (ip), vehicle: saline sonified
[7] = dose: 50.0 mg/kg/injection, schedule: Q01DX009 (ip), vehicle: saline
[8] = dose: 100.0 mg/kg/injection, schedule: Q01DX009 (ip), vehicle: saline
[9] = dose: 200.0 mg/kg/injection, schedule: Q01DX009 (ip), vehicle: saline

Measured: T/C

O=C1OCCN1/N=C\c1ccccc1
inactive: dose: 100.0 mg/kg/injection, schedule: Q01DX001 (ip), vehicle: olive oil, sesame oil, peanut oil 95 % of control | dose: 200.0 mg/kg/injection, schedule: Q01DX001 (ip), vehicle: olive oil, sesame oil, peanut oil 104 % of control | dose: 400.0 mg/kg/injection, schedule: Q01DX001 (ip), vehicle: olive oil, sesame oil, peanut oil 104 % of control

O=[N+]([O-])c1ccc(N=Nc2c(Cl)cc(O)cc2Cl)cc1
inactive: dose: 3.13 mg/kg/injection, schedule: Q01DX009 (ip), vehicle: saline with Tween-80 95 % of control | dose: 6.25 mg/kg/injection, schedule: Q01DX009 (ip), vehicle: Klucel (hydroxypropylcellulose) (HPC) 115 % of control | dose: 6.25 mg/kg/injection, schedule: Q01DX009 (ip), vehicle: saline with Tween-80 95 % of control | [1] 110 % of control | dose: 12.5 mg/kg/injection, schedule: Q01DX009 (ip), vehicle: saline with Tween-80 95 % of control | [2] 115 % of control | dose: 35.0 mg/kg/injection, schedule: Q01DX009 (ip), vehicle: Klucel (hydroxypropylcellulose) (HPC) 94 % of control | dose: 50.0 mg/kg/injection, schedule: Q01DX009 (ip), vehicle: Klucel (hydroxypropylcellulose) (HPC) 97 % of control | dose: 75.0 mg/kg/injection, schedule: Q01DX009 (ip), vehicle: Klucel (hydroxypropylcellulose) (HPC) 118 % of control | [3] 120 % of control | [4] 100 % of control | [5] 100 % of control | [6] 100 % of control

CCc1ccc(O)c(C(=O)c2c[nH]c(=O)c(C(N)=O)c2)c1
inactive: dose: 50.0 mg/kg/injection, schedule: Q04DX002 (ip), vehicle: saline with Tween-80 103 % of control | dose: 100.0 mg/kg/injection, schedule: Q04DX002 (ip), vehicle: saline with Tween-80 94 % of control | dose: 200.0 mg/kg/injection, schedule: Q04DX002 (ip), vehicle: saline with Tween-80 99 % of control

COc1ccc(/C=C/C2(O)N(C)C(=O)N(C)C(=O)N2C)cc1
inactive: [7] 89 % of control | [8] 99 % of control | [9] 118 % of control

CCCCCCCCCCCCCCCCCCCCCCCCC(O)C(=O)NC(CO)C(O)C(O)CCCCCCCCCCCCCC (configuration not stated)
inactive: dose: 400.0 mg/kg/injection, schedule: Q04DX003 (ip), vehicle: saline with Tween-80 87 % of control

CC(=O)Nc1ccc(/C=N/Nc2ccc([N+](=O)[O-])cn2)cc1
inactive: dose: 62.5 mg/kg/injection, schedule: Q01DX010 (ip), vehicle: saline 95 % of control | [4] 105 % of control | dose: 125.0 mg/kg/injection, schedule: Q01DX010 (ip), vehicle: saline 90 % of control | [5] 105 % of control | dose: 250.0 mg/kg/injection, schedule: Q01DX010 (ip), vehicle: saline 100 % of control | [6] 100 % of control

c1ccc(OP2OCCO2)cc1
inactive: [7] 104 % of control | [8] 104 % of control | dose: 100.0 mg/kg/injection, schedule: Q04DX003 (ip), vehicle: saline 87 % of control | [9] 95 % of control | dose: 200.0 mg/kg/injection, schedule: Q04DX003 (ip), vehicle: saline 112 % of control

Cc1ncc(CO)c(C2NOCc3ccc(Cl)cc32)c1O (configuration not stated)
inactive: [1] 104 % of control | [2] 86 % of control | dose: 25.0 mg/kg/injection, schedule: Q04DX003 (ip), vehicle: Klucel (hydroxypropylcellulose) (HPC) 111 % of control | dose: 50.0 mg/kg/injection, schedule: Q04DX003 (ip), vehicle: Klucel (hydroxypropylcellulose) (HPC) 105 % of control | dose: 100.0 mg/kg/injection, schedule: Q04DX003 (ip), vehicle: Klucel (hydroxypropylcellulose) (HPC) 122 % of control

CC(=O)Nc1ccc(OCCOC(=O)Nc2ccc(C)cc2[N+](=O)[O-])cc1
inactive: [1] 105 % of control | [2] 93 % of control

Cc1ccc(C)c(C(=O)C2CC2)c1
inactive: dose: 50.0 mg/kg/injection, schedule: Q04DX003 (ip), vehicle: saline with Tween-80 100 % of control | [3] 100 % of control | dose: 100.0 mg/kg/injection, schedule: Q04DX003 (ip), vehicle: saline with Tween-80 120 % of control | dose: 150.0 mg/kg/injection, schedule: Q01DX009 (ip), vehicle: saline with Tween-80 103 % of control | dose: 200.0 mg/kg/injection, schedule: Q01DX009 (ip), vehicle: saline with Tween-80 110 % of control | dose: 200.0 mg/kg/injection, schedule: Q04DX003 (ip), vehicle: saline with Tween-80 100 % of control
